These results are taken from patent publication US9382197B2, “Substituted hydroxamic acids and uses thereof” (Millennium Pharmaceuticals, Inc., priority 2010, dated 2016).

A value given as a limit tells only on which side of the number the result lay.

In one test the target is T1, purified human HDAC6 (Homo sapiens, UniProt Q9UBN7).
T1 construct: purchased BPS Bioscience 5006
T1 sequence (Q9UBN7 1-1215): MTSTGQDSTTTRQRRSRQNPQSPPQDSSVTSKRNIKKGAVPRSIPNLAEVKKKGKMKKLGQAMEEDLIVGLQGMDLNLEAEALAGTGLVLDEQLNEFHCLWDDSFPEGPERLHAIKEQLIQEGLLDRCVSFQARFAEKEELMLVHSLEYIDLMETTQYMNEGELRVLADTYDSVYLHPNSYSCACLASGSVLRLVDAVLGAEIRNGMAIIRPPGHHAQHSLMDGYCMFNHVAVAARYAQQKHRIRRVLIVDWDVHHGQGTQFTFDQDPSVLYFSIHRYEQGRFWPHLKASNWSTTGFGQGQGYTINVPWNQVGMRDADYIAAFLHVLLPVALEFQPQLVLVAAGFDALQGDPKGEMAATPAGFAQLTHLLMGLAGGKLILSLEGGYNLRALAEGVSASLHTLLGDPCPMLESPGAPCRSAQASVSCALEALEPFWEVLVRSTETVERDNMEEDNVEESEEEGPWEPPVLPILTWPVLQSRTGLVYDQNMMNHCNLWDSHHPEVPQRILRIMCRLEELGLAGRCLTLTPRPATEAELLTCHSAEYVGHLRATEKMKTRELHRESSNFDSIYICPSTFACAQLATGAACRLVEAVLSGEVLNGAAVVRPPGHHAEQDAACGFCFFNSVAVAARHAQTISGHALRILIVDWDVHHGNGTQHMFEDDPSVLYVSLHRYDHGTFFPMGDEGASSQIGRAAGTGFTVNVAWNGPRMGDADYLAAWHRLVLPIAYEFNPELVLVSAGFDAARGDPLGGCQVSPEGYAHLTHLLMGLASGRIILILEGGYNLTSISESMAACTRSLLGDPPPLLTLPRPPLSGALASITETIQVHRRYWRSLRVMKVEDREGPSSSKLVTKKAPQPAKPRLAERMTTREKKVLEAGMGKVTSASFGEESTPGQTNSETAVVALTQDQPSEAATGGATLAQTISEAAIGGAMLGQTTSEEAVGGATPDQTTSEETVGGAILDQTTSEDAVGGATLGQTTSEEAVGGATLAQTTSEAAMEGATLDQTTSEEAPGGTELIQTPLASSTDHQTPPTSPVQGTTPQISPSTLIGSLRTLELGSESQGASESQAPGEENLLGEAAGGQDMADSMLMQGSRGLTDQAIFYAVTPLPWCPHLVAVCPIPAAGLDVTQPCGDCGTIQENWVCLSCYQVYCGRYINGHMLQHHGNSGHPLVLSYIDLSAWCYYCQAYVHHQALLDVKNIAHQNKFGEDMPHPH
The test can be described thus: HDAC6 Enzyme Assay. Type of test: biochemical. Conditions: bin: greater than 500 nM and less than 1 μM (lower bound in nM, upper bound in μM). The protocol:
To measure the inhibition of HDAC6 activity, purified human HDAC6 (BPS Bioscience; Cat. No. 5006) is incubated with substrate Ac-Arg-Gly-Lys(Ac)-AMC peptide (Bachem Biosciences; Cat. No. 1-1925) for 1 hour at 30° C. in the presence of test compounds or vehicle DMSO control. The reaction is stopped with the HDAC inhibitor trichostatin A (Sigma; Cat. No. T8552) and the amount of Arg-Gly-Lys-AMC generated is quantitated by digestion with trypsin (Sigma; Cat. No. T1426) and subsequent measurement of the amount of AMC released using a fluorescent plate reader (Pherastar; BMG Technologies) set at Ex 340 nm and Em 460 nm. Concentration response curves are generated by calculating the fluorescence increase in test compound-treated samples relative to DMSO-treated controls, and enzyme inhibition (IC50) values are determined from those curves.
The term IC50 denotes the point on the concentration scale where inhibition reaches its midpoint. Read a high IC50 as a need for much substance. `CC(C)(C)C(NC(=O)c1cc(C(F)(F)F)cc(C(F)(F)F)c1)c1ccc(C(=O)NO)cc1` (centres unmarked) [Compound I-52, N-(1-{4-[(hydroxyamino)carbonyl]phenyl}-2,2-dimethylpropyl)-3,5-bis(trifluoromethyl)benzamide] registered an IC50 of 500 to 1000 nM.

The test is the same for the next values; noted with them: bin: greater than 1 μM.
For `CC(NC(=O)Cc1ccc2c(c1)OCO2)c1ccc(C(=O)NO)cc1` (centres unmarked) [Compound I-280, 4-{1-[(1,3-benzodioxol-5-ylacetyl)amino]ethyl}-N-hydroxybenzamide], the IC50 is > 1000 nM.
Take `Cn1c(C(=O)N[C@@H](c2ccc(C(=O)NO)cc2)C(F)(F)F)cc2oc(-c3ccccc3)cc21` [Compound I-231, 4-methyl-2-phenyl-N-((1S)-2,2,2-trifluoro-1-{4-[(hydroxyamino)carbonyl]phenyl}ethyl)-4H-furo[3,2-b]pyrrole-5-carboxamide]: the IC50 was > 1000 nM.
The same measure, in the same setting: the same measure for `Cc1cc(C(=O)NC(C)c2ccc(C(=O)NO)cc2)nn1C` (centres unmarked) [Compound I-241, N-(1-{4-[(hydroxyamino)carbonyl]phenyl}ethyl)-1,5-dimethyl-1H-pyrazole-3-carboxamide]: > 1000 nM; for `CC(NC(=O)Cc1cccc(C(F)(F)F)c1)c1cccc(C(=O)NO)c1` (centres unmarked) [Compound I-314, N-hydroxy-3-[1-({[3-(trifluoromethyl)phenyl]acetyl}amino)ethyl]benzamide]: > 1000 nM.
The same measure, in the same setting: then `CC(C)(C)C(NC(=O)C1CCCCC1)c1ccc(C(=O)NO)cc1` (centres unmarked) [Compound I-265, 4-{1-[(cyclohexylcarbonyl)amino]-2,2-dimethylpropyl}-N-hydroxybenzamide], with > 1000 nM.

Still in this test, the particulars now being: purified human HDAC6, substrate Ac-Arg-Gly-Lys(Ac)-AMC, 1 hour at 30° C.; reported as bins.
In the case of `CC(C)[C@@H](NC(=O)C12CC3CC(CC(C3)C1)C2)c1ccc(C(=O)NO)cc1` [Compound I-328, N-((1R)-1-{4-[(hydroxyamino)carbonyl]phenyl}-2-methylpropyl)adamantane-1-carboxamide], the IC50 was < 100 nM.
On the same count and under the same terms, then `Cc1onc(-c2ccccc2)c1NC(=O)NC(C)c1ccc(C(=O)NO)cc1` (centres unmarked) [Compound I-305, N-hydroxy-4-[1-({[(5-methyl-3-phenylisoxazol-4-yl)amino]carbonyl}amino)ethyl]benzamide], with 100 to 500 nM; and `CC(C)C(NC(=O)c1ccc2occc2c1)c1ccc(C(=O)NO)cc1` (centres unmarked) [Compound I-194, N-(1-{4-[(hydroxyamino)carbonyl]phenyl}-2-methylpropyl)-1-benzofuran-5-carboxamide], with < 100 nM; and `C[C@@H](NC(=O)c1ccc(-c2ccccc2)cc1)c1ccc(C(=O)NO)cc1` [Compound I-92, N-((1R)-1-{4-[(hydroxyamino)carbonyl]phenyl}ethyl)biphenyl-4-carboxamide], with < 100 nM.
`CC(C)[C@@H](NC(=O)c1cc2ccccc2s1)c1ccc(C(=O)NO)cc1` [Compound I-214, N-((1R)-1-{4-[(hydroxyamino)carbonyl]phenyl}-2-methylpropyl)-1-benzothiophene-2-carboxamide]: the half-maximal inhibitory concentration (IC50) is < 100 nM.
Same read-out and setting: then `C[C@@H](NC(=O)c1cc(Cl)c(Cl)n1C)c1cccc(C(=O)NO)c1` [Compound I-301, 4,5-dichloro-N-((1R)-1-{3-[(hydroxyamino)carbonyl]phenyl}ethyl)-1-methyl-1H-pyrrole-2-carboxamide], with 100 to 500 nM.
Still for that read-out and setting: then `CC(C)[C@H](NC(=O)c1cc2ccccc2[nH]1)c1ccc(C(=O)NO)cc1` [Compound I-279, N-((1S)-1-{4-[(hydroxyamino)carbonyl]phenyl}-2-methylpropyl)-1H-indole-2-carboxamide], with 100 to 500 nM; and `CC(C)[C@@H](Nc1nc(-c2cc(-c3ccccc3)no2)cs1)c1ccc(C(=O)NO)cc1` [Compound I-519, N-hydroxy-4-((1R)-2-methyl-1-{[4-(3-phenylisoxazol-5-yl)-1,3-thiazol-2-yl]amino}propyl)benzamide], with < 100 nM; and `C[C@@H](NC(=O)c1cc2ccccc2o1)c1ccc(C(=O)NO)cc1` [Compound I-317, N-((1R)-1-{4-[(hydroxyamino)carbonyl]phenyl}ethyl)-1-benzofuran-2-carboxamide], with < 100 nM.
On the same count and under the same terms, then `COc1cccc(S(=O)(=O)NC(C)c2ccc(C(=O)NO)cc2)c1` (centres unmarked) [Compound I-23, N-hydroxy-4-(1-{[(3-methoxyphenyl)sulfonyl]amino}ethyl)benzamide], with 100 to 500 nM.
Regarding `C[C@@H](NC(=O)NC12CC3CC(CC(C3)C1)C2)c1ccc(C(=O)NO)cc1` [Compound I-374, 4-[(1R)-1-({[1-adamantylamino]carbonyl}amino)ethyl]-N-hydroxybenzamide], the half-maximal inhibitory concentration (IC50) was < 100 nM.
Still for that read-out and setting: then `CC(NC(=O)c1ccc(-c2cnco2)cc1)c1ccc(C(=O)NO)cc1` (centres unmarked) [Compound I-138, N-(1-{4-[(hydroxyamino)carbonyl]phenyl}ethyl)-4-(1,3-oxazol-5-yl)benzamide], with < 100 nM; and `CC(C)[C@@H](NC(=O)C12CC3CC(CC(O)(C3)C1)C2)c1ccc(C(=O)NO)cc1` [Compound I-223, 3-hydroxy-N-((1R)-1-{4-[(hydroxyamino)carbonyl]phenyl}-2-methylpropyl)adamantane-1-carboxamide], with < 100 nM; and `CC(C)C(NC(=O)c1cc2ccccc2s1)c1ccc(C(=O)NO)cc1` (centres unmarked) [Compound I-94, N-(1-{4-[(hydroxyamino)carbonyl]phenyl}-2-methylpropyl)-1-benzothiophene-2-carboxamide], with < 100 nM.
On the same count and under the same terms, the same measure for `CC(C)(C)C(NC(=O)c1cc2ccccc2[nH]1)c1ccc(C(=O)NO)cc1` (centres unmarked) [Compound I-127, N-(1-{4-[(hydroxyamino)carbonyl]phenyl}-2,2-dimethylpropyl)-1H-indole-2-carboxamide]: < 100 nM; for `Cc1ccc(C(=O)NC(C)c2ccc(C(=O)NO)cc2)s1` (centres unmarked) [Compound I-147, N-(1-{4-[(hydroxyamino)carbonyl]phenyl}ethyl)-5-methylthiophene-2-carboxamide]: < 100 nM; for `CC(C)C(NC(=O)c1cc2cc(Cl)ccc2[nH]1)c1ccc(C(=O)NO)cc1` (centres unmarked) [Compound I-247, 5-chloro-N-(1-{4-[(hydroxyamino)carbonyl]phenyl}-2-methylpropyl)-1H-indole-2-carboxamide]: < 100 nM.
Same read-out and setting: then `CC(NC(=O)c1cn2cc(Cl)ccc2n1)c1ccc(C(=O)NO)cc1` (centres unmarked) [Compound I-35, 6-chloro-N-(1-{4-[(hydroxyamino)carbonyl]phenyl}ethyl)imidazo[1,2-a]pyridine-2-carboxamide], with < 100 nM.
For `CCC[C@@H](NC(=O)c1oc2ccccc2c1C)c1ccc(C(=O)NO)cc1` [Compound I-367, N-((1R)-1-{4-[(hydroxyamino)carbonyl]phenyl}butyl)-3-methyl-1-benzofuran-2-carboxamide], the IC50 is < 100 nM.
In turn, `CC(C)(C)C(NC(=O)c1cnccn1)c1ccc(C(=O)NO)cc1` (centres unmarked) [Compound I-87, N-(1-{4-[(hydroxyamino)carbonyl]phenyl}-2,2-dimethylpropyl)pyrazine-2-carboxamide] yielded an IC50 of 100 to 500 nM.
On the same count and under the same terms, then `CCC[C@@H](NC(=O)c1cc(Cl)c(Cl)n1C)c1ccc(C(=O)NO)cc1` [Compound I-245, 4,5-dichloro-N-((1R)-1-{4-[(hydroxyamino)carbonyl]phenyl}butyl)-1-methyl-1H-pyrrole-2-carboxamide], with < 100 nM.
Regarding `Cc1c(C(=O)N[C@H](C)c2cccc(C(=O)NO)c2)sc2ccccc12` [Compound I-113, N-((1R)-1-{3-[(hydroxyamino)carbonyl]phenyl}ethyl)-3-methyl-1-benzothiophene-2-carboxamide], the IC50 was in the range of 100 to 500 nM.
Still for that read-out and setting: the same measure for `C[C@@H](NC(=O)C1(C)CCNCC1)c1ccc(C(=O)NO)cc1` [Compound I-487, N-((1R)-1-{4-[(hydroxyamino)carbonyl]phenyl}ethyl)-4-methylpiperidine-4-carboxamide]: 100 to 500 nM.
